Experimental findings from patent US7605185B2, “Treatment of arrhythmia by retinoids affecting signal transduction” (priority 1999, dated 2009) are described below.

Data set [1] in a line: Death of mouse pups after gavage. Conditions: nonmutagenic amounts. It counts as in vivo. The method, then: (§1) 1 week old litters of C57/b mice (around 3 g body weight) were divided into groups of five to 10 animals, to be treated with all-trans-RA in carrier, 9cis-RA in carrier, or carrier (canola oil, Sigma). Every treatment group was assigned to one nursing mother. Groups larger than 10 pups were avoided, to exclude limited feeding frequency as experimental variable. A retinoid preparation for gavage was formulated such that every animal received a maximum of 150 μl volume containing 40 mg/kg all-trans RA in carrier, 12 mg/kg or 20 mg/kg 9cis-RA in carrier, or carrier alone. DMSO or ethanol content was limited to 0.1%. Pups were gavage-fed from a tuberculin syringe connected with a bent vein catheter. The strong suckling reflex facilitated delivery of the viscous and odorous formulation. Depending on the territorial protection behaviour of the mother, pups were briefly rolled in cage stray after gavage to prevent triggering maternal infanticide behaviour through unusual smell of the pups. For two hours after gavage, pups were carefully monitored to prevent maternal infanticide. Every 24 h, the weight was recorded.
(§2) For uptake kinetics, pairs of treated pups were sacrificed by decapitation after 1 h, 2 h, 4 h, 8 h, 16 h, 24 h, 36 h and 72 h. Organs were removed under the dissection microscope and frozen in liquid nitrogen. […]

The next data set has as its system IGFBP5. In words: Confocal immunohistology of IGF pathway proteins in cardiac cell types. It counts as in vivo, mouse. Conditions: after treatment, dose not stated. On the procedure:
as §1, with “The strong suckling reflex facilitated delivery of the viscous and odorous formulation. Depending on the territorial protection behaviour of the mother, pups were briefly rolled in cage stray after gavage to prevent triggering maternal infanticide behaviour through unusual smell of the pups.” left out, “recorded. […]” for “recorded.”
The mechanism of apoptosis was investigated using commercially available primary antibodies of highest purity, at dilutions recommended by the manufacturer, against IGF-1, IGF-II, the entire set of IGFbinding proteins (IGFBP1-5), IGF-R, mitochondrial Mn-dependent superoxide dismutase Mn-SOD, and cytoplasmic Cu/Zn-dependent superoxide dismutase Cu/Zn-SOD. […] Confocal images were captured and processed for quantitative analysis by Zeiss LSM-300 software. […] At least five independent regions of similar size were analyzed per tissue type and retinoid treatment condition. […]

The subject of data set [2] is mitochondrial Mn-dependent superoxide dismutase Mn-SOD. In words: Quantitative confocal immunohistology of Mn-SOD protein signal in cardiac outflow tract. The data set is classed as in vivo, mouse. To be noted: 20 mg/kg; for upregulation of MnSOD protein signal: connexin-positive cells. On the procedure:
as §1, with “recorded. […]” for “recorded.”
The mechanism of apoptosis was investigated using commercially available primary antibodies of highest purity, at dilutions recommended by the manufacturer, against IGF-1, IGF-II, the entire set of IGFbinding proteins (IGFBP1-5), IGF-R, mitochondrial Mn-dependent superoxide dismutase Mn-SOD, and cytoplasmic Cu/Zn-dependent superoxide dismutase Cu/Zn-SOD. […] Confocal images were captured and processed for quantitative analysis by Zeiss LSM-300 software. Briefly, the pixel intensities per unit area amounting to channel background were determined for each antibody/seconday antibody combination and subtracted from the experimental pixel intensities. […] At least five independent regions of similar size were analyzed per tissue type and retinoid treatment condition. Averaged pixel intensities per unit area upon 9cis retinoid induction were expressed as multiples of averaged pixel intensities per unit area in the absence of 9cis retinoid induction (fold induction +/−s.e.m.)

Data set [3] has as its system mouse heart (cardiomyocytes). In words: Perinatal mouse heart model: cardiac growth, heart size and weight after retinoid gavage. The data set is classed as in vivo. On the procedure:
as §1
(§3) For uptake kinetics, pairs of treated pups were sacrificed by decapitation after 1 h, 2 h, 4 h, 8 h, 16 h, 24 h, 36 h and 72 h. Organs were removed under the dissection microscope and frozen in liquid nitrogen. Hearts were dissected under the surgical dissection microscope; tissues were divided into atria, ventricles, and enriched in conductance system (a tissue preparation containing the ventricular septa with the Purkinje fibers and the atrial region between the aorta and the pulmonal artery (outflow tract) with the sinus node). For immunohistology, pups were sacrificed after 72 h, hearts were rinsed in PBS, weighed and fixed in 4% para-formaldehyde in PBS before embedding in OCT for standard cryostat procedures. If pups were on the brink of death (typically between 36 and 72 h after gavage), they were sacrificed, and hearts were collected for confocal microscopy or HPLC.

Data set [4] has as its system cardiac conductance cells and cardiac neurons. The data set is described as follows: TUNEL apoptosis staining with connexin37/40 or neuron-specific enolase counterstain, confocal microscopy. The data set is classed as in vivo, mouse. The method, then: as §1, §3
For confocal microscopy, cryostat sections were first stained for apoptotic DNA strand breaks according to the TUNEL protocol (using the commercially available Apoptag™ kit, Oncor Inc., Gaithersburg Md.) and counterstained with rabbit anti-connexin37 antibody or rabbit anti-connexin40 antibody for conductance cells, or with rabbit anti-myosin antibody for cardiac myocytes. Immunodetection of connexin isoforms 40 and 43 has been established as a useful method to detect cells of the cardiac conductance system in rodents (Gourdie et al., The spatial distribution and relative abundance of gap-junctional connexin40 and connexin43 correlate to functional properties of components of the cardiac atrioventricular conducting system, J. Cell Science 105 (Pt 4) 985-991, 1993); because of the relatively weak signal of connexin40, the connexin isoform 37 can be used as equivalent marker for the conductance system in the mouse model (Willecke K et al, 1991; Willecke K, personal communication). The combination of rabbit anti-Neuron-specific enolase with propidium iodide followed published procedures (Current Protocols in Molecular Biology) and was used to identify cardiac neurons with advanced apoptotic condensation of nuclei. Procedures of immunohistology and image analysis are further described in detail in Graupner, WO 00/53236.

Another data set concerns cardiac myocytes. In words: TUNEL apoptosis staining with anti-myosin counterstain, confocal microscopy. The data set is classed as in vivo, mouse.
Source text: as §1, with “A retinoid preparation for gavage was formulated such that every animal received a maximum of 150 μl volume containing 40 mg/kg all-trans RA in carrier, 12 mg/kg or 20 mg/kg 9cis-RA in carrier, or carrier alone.” left out
as §2

The test system of data set [5] is endogenous peroxidase activity. The data set is described as follows: Gas release from heart tissue sections on addition of H2O2. It counts as in vivo, mouse. To be noted: 20 mg/kg. On the procedure:
as §1, with “The strong suckling reflex facilitated delivery of the viscous and odorous formulation. Depending on the territorial protection behaviour of the mother, pups were briefly rolled in cage stray after gavage to prevent triggering maternal infanticide behaviour through unusual smell of the pups.” left out
Another observation with significant ramifications is the substantial activation of pathways metabolizing reactive oxygen species in cardiac tissue after administration of 20 mg/kg of 9cis-RA. […] Second, very high upregulation of MnSOD protein signal was detected in connexin-positive cells of the cardiac outflow tract; the signal of 3.4 fold upregulation localizes to the region of the atrium surrounding the sino-atrial node; the signal of 11 fold upregulation localizes most likely to the area of the sino-atrial node proper. […]

The mark [6] stands for this setting: higher amounts, 20 mg/kg and higher, mice.
The mark [7] stands for this setting: in vivo administration to mice, dose not stated.

`CC1=C(/C=C/C(C)=C\C=C\C(C)=C\C(=O)O)C(C)(C)CCC1` [9cis-RA, 9-cis retinoic acid]: the “death of mouse pups after gavage” value in data set [1] is “sudden death of mouse pups”. In the data set with IGFBP5, the “IGFBP5 expression in cardiac myocytes” value is on record as “moderately upregulated”. Moreover, in data set [2] (versus carrier), the “immunoreactive Mn-SOD in mitochondria of cells in the cardiac outflow tract (FIG. 4)” value is on record as “upregulation”. Also, the “upregulation of MnSOD protein signal” value was found to be 11 fold in data set [2] (most likely area of the sino-atrial node proper) and 3.4 fold in data set [2] (region of the atrium surrounding the sino-atrial node). Moreover, the “effect on growth (growth factor-dependent pathway)” value in data set [3] (10 mg/kg) is “growth-inhibitory effect”. In data set [3] (20 mg/kg or less than 10 mg/kg), the “size of the average myocardial myocyte” value is given as “reduced”. Moreover, the myocardial growth stunting entry in data set [3] (around 10 mg/kg) was “approached complete growth arrest”. The growth of cardiomyocytes entry in data set [3] (setting [6]) and in data set [3] (setting [7]) was “reduced growth of cardiomyocytes” in each case. Moreover, the “cell growth in heart” value in data set [3] (moderate amounts, 3-10 mg/kg, mice) was “reduced growth of cardiomyocytes, cardiac neurons, and cells of the cardiac conductance system”. Moreover, the “apoptosis in cardiac conductance cells of perinatal mouse heart (FIG. 3, confocal micrographs)” value in data set [4] (20 mg/kg) was “colocalization of apoptosis in cardiac conductance cells”. For the same compound, the “correlation between apoptosis and conductance cell phenotype” value in data set [4] (20 mg/kg) is reported as “strong correlation”. For the same compound, the effect on apoptosis entry in data set [4] (40 mg/kg) is recorded as “pro-apoptotic effect”. In data set [4] (setting [6]), the “apoptosis of cardiac neurons and cardiac pacemaker cells” value was “apoptosis of cardiac neurons and cardiac pacemaker cells”. Besides, in data set [4] (setting [7]), the “apoptosis in cardiac neurons and cardiac conductance system” value was “apoptosis in cardiac neurons and cells of the cardiac conductance system”. Besides, the “correlation between apoptosis and conductance cell type” value in data set [4] (less than 10 mg/kg) was “no correlation”. The “colocalization of TUNEL signal in cardiac myocytes” value with cardiac myocytes (20 mg/kg) and in the data set with cardiac myocytes (less than 10 mg/kg) was “No colocalization of TUNEL signal” throughout. The “gas bubbles released from myocardial cells on H2O2 addition (endogenous peroxidase activity)” value in data set [5] is on record as “remarkable amounts of gas bubbles were released”.
As to `CC1=C(/C=C/C(C)=C/C=C/C(C)=C/C(=O)O)C(C)(C)CCC1` [all-trans-RA, all-trans retinoic acid], the myocardial growth reduction result in data set [3] (40 mg/kg) is given as “less than 30%”. Besides, the “correlation between apoptosis and conductance cell type” value in data set [4] (40 mg/kg) is “no correlation”.
